Experiment: gradient 5% acetonitrile 3 min, to 50% in 2 min, to 85% in 15 min, held 3 min, 100 µL/min
Details: column: Zorbax Extend-C18 2.1 x 50 mm; eluents: water / acetonitrile, 0.1% formic acid
In short: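 Data were gathered over 3 months by HPLC coupled to a quadrupole time-of-flight mass spectrometer, operated in positive and negative ionization mode. Mixtures of ~100 pure standards ran on a Zorbax Extend-C18 column (2.1 × 50 mm, 1.8 μm) at 100 μL/min, with water and acetonitrile each containing 0.1% formic acid and dead and dwell volumes of 40 μL and 900 μL. Retention time was read from adduct peaks picked by computer and checked manually.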

| RP-LC retention time [s] | SMILES |
| --- | --- |
| 660 | COc1ccc(C(O)CN2CCN(c3ccccc3F)CC2)cc1 (stereo not given) |
| 998 | O=C(NCCc1c[nH]c2ccc(Cl)cc12)c1cc2n(n1)CCCN(Cc1ccc(Cl)cc1)C2=O |
| 866 | Cc1nnc2ccc(S(=O)(=O)N(Cc3ccccc3)c3cccc(F)c3)cn12 |
| 686 | Brc1ccc(-c2ccc(CNCc3cccnc3)o2)c(Br)c1 |
| 882 | Cc1cc(N2CCC(NC(=O)Nc3cccc(F)c3)C2=O)ccc1F (stereo not given) |
| 727 | Nc1cc(=O)nc(SCC(=O)Nc2nc(-c3ccccc3)cs2)n1-c1ccccc1 |
| 778 | O=C(NCc1ccccn1)c1ccc(-c2nc3cccnc3n(C3CCCC3)c2=O)cc1 |
| 765 | CCCN1C(=O)Cc2ccccc2C1C(=O)NCc1ccc2c(c1)OCO2 (stereo not given) |
| 909 | O=C(c1ccccc1)N1CCC(CCNS(=O)(=O)c2ccc(Br)cc2)CC1 |
| 722 | Cc1cccc(-c2nc(C)c3c(n2)N(Cc2cccnc2)C(=O)CC3)c1 |
| 624 | CCCn1c(C)cnc1C1CN(S(=O)(=O)c2cccc3cccnc23)C1 |
| 891 | C/C=C/C(=O)N1C(=O)OC[C@@H]1Cc1ccccc1 |
| 710 | Cc1cc(C)nc(Nc2nc(-c3ccccc3)c(CC(=O)O)s2)n1 |
| 1240 | CCCN1C(=O)COc2ccc(-c3noc(-c4cc(OC)cc(OC)c4)n3)cc21 |
| 1040 | CC(C)CC(=O)N1CCc2c([nH]c3ccccc23)C12C(=O)N(C)c1ccc(Br)cc12 (stereo not given) |
| 843 | COCCCNc1nc(-c2ccc(C(C)(C)C)cc2)nc2ccccc12 |
| 1300 | CC(C)c1ccc(-c2nc(C3CC(=O)N(c4ccc(Cl)cc4)C3)no2)cc1 (stereo not given) |
| 670 | CCOc1ccc(NC(=O)Cc2nnc(-c3ccncc3)o2)cc1 |
| 634 | COc1ccc2c(c1)CC(NC(=O)NCCCN1CCN(Cc3ccccc3)CC1)CO2 (stereo not given) |
| 925 | Cc1ccc2[nH]cc(CCNC(=O)c3ccc4nc(C(C)C)oc4c3)c2c1 |
| 1110 | CCC(C)N(C)C(=O)c1cc2ccccc2c(-c2ccccc2Cl)n1 (stereo not given) |
| 622 | COc1ccc(CNC(=O)Cc2nnc(-c3ccccn3)o2)cc1OC |

| RP-LC retention time [s] | SMILES |
| --- | --- |
| 732 | COCCCNC(=O)c1ccc2c(c1)N(Cc1ccccc1)C(=O)CO2 |
| 808 | CCOC(=O)c1[nH]c(C)c(CCC(=O)N2CCC(C(=O)NCc3ccccc3Cl)CC2)c1C |
| 641 | CCn1c(CCNC(=O)c2cc(F)ccc2F)nc2cccnc21 |
| 764 | CN1C(=O)C2(CCN(C(=O)Nc3ccccc3)C2)c2ccccc21 (stereo not given) |
| 1080 | Cc1ccc(Cn2c(=O)c(N3CCCC(C(=O)NCCc4c(C)noc4C)C3)nc3ccccc32)cc1 (stereo not given) |
| 779 | CCN1C(=O)C2(c3ccccc31)c1[nH]c3ccccc3c1CCN2C(C)=O (stereo not given) |
| 900 | O=S(=O)(c1cccc2cccnc12)N1CCCn2nc(-c3cccs3)cc2C1 |
| 1030 | O=C(c1cc(-c2ccco2)on1)N1CCC(Oc2nc3ccccc3s2)CC1 |
| 1420 | CCOc1ccccc1C(=O)N(CC)c1nc(-c2ccc(C)cc2)cs1 |
| 1140 | Cc1nc2c(sc3nc(-c4ccccc4)ccc32)c(=O)n1CC(=O)Nc1ccc(F)c(Cl)c1 |
| 862 | CCOC(=O)c1c(S(=O)(=O)N2CCC(C(=O)NCc3ccccc3Cl)CC2)c(C)n(C)c1C |
| 882 | CC(C)c1cc(-c2ccc(F)c3ccccc23)nc(N)n1 |
| 828 | CCNC(=O)c1cc2cc(Br)ccc2[nH]1 |
| 693 | CC(C)Cn1c(=O)c(-c2ccc(C(=O)NCc3cccnc3)cc2)nc2ccccc21 |
| 1010 | CCOc1ccccc1C1CC(=O)Nc2c(S(=O)(=O)c3ccccc3)csc21 (stereo not given) |
| 823 | CN1c2cc(C(=O)N3CCN(c4ccccc4)CC3)ccc2C(=O)N2CCCCC21 (stereo not given) |
| 1090 | Cc1cc(C)c(S(=O)(=O)N2CCCC(C(=O)Nc3ccccc3F)C2)c(C)c1 (stereo not given) |
| 773 | CC(C)OCCCNC(=O)CCCn1c2ccccc2c2cnn(C)c(=O)c21 |
| 769 | Cc1ccc(C)c(NC(=O)N2CCC3(CC2)NC(=O)c2ccc(F)cc2N3C)c1 |
| 771 | O=C(O)CSc1nnc(-c2ccc(Cl)cc2Cl)n1Cc1ccccc1 |
| 740 | CCN1c2cc(F)ccc2C(=O)NC12CCN(C(=O)c1ccc(OC)c(OC)c1)CC2 |

More lines, now with the values behind:

| SMILES | RP-LC retention time [s] |
| --- | --- |
| COCCNC(=O)c1csc(N2CCN(c3ccc(F)cc3)CC2)n1 | 869 |
| COCCNS(=O)(=O)c1cc(-c2nc(CC(C)C)cs2)cs1 | 1010 |
| O=C(CCCSc1ccc(NC(=O)c2ccc(F)cc2)nn1)Nc1nccs1 | 745 |
| COc1ccc(NC(=O)N2[C@H]3CC[C@@H]2c2cnc(C)nc2C3)cc1OC | 611 |
| O=C(NC1CCCCCC1)c1cn(-c2cc(-c3nc(C4CC4)no3)ccn2)cn1 | 1040 |
| Cc1ccc(C(=O)N2CCC(c3nc(C4CC4)n[nH]3)CC2)s1 | 600 |
| O=c1c2ccccc2c(-c2nc(-c3ccncc3)no2)cn1-c1ccc(F)cc1 | 1080 |
| O=C(Nc1ccc(F)cc1)N1CCCC1c1nc(-c2ccc(F)cc2F)no1 (stereo not given) | 934 |
| CCOc1ccc(Cl)cc1S(=O)(=O)N1CCC(C(=O)NCCOC)CC1 | 753 |
| O=C(C1CCCC1)N1CCC(c2noc(-c3ccccc3)n2)C1 (stereo not given) | 924 |
| CCc1noc(-c2ccc(-n3cnc(C(=O)NC4CCCCCC4)c3)nc2)n1 | 968 |
| CCNC(=O)C1CCN(C(=O)Nc2ccc(NC(=O)NCCC(C)C)cc2)CC1 | 662 |
| COc1ccc(C)cc1NC(=O)Cn1nc2nc(N3CCCCC3C)ccn2c1=O (stereo not given) | 840 |
| O=S1(=O)C[C@H](N2CCN(c3ccccn3)CC2)[C@@H](S(=O)(=O)c2ccc(F)cc2)C1 | 1040 |
| COc1ccc(S(=O)(=O)N2CCC(OCCOc3ccccc3)CC2)cc1 | 1070 |
| O=C(CC1CCN(C(=O)c2cc(F)ccc2F)C1)NC1CC1 (stereo not given) | 630 |
| Cc1nc2cc(-c3noc(-c4ccc(F)cc4)n3)ccc2n(C(C)C)c1=O | 1200 |
| CCn1cnnc1C1CCCCN1S(=O)(=O)c1ccc(C#N)cc1 (stereo not given) | 695 |
| CS(=O)(=O)N1CCC(OC2CCN(C(=O)NCc3cccc(F)c3)CC2)CC1 | 730 |
| CCc1ccc(S(=O)(=O)N2CCC(n3cnnc3C3CC3)CC2)cc1 | 772 |
| COc1ccc(NS(=O)(=O)c2cc3n(c2)CCN(C(C)C)C3=O)cc1Cl | 775 |
| O=C(NCCc1csc(-c2cccs2)n1)C1CCN(C(=O)C2CCCCC2)CC1 | 817 |
| Cc1ccc(Nc2c(-c3ccc(O)cc3)nc3ccc(Cl)cn23)cc1 | 696 |
| O=C(/C=C/c1ccccc1)NC(NC(=S)Nc1ccc(Cl)cc1)C(Cl)(Cl)Cl (stereo not given) | 1030 |

| SMILES | RP-LC retention time [s] |
| --- | --- |
| Cc1cccc(NC(=O)Cn2nc3n(c2=O)CCCC3)c1C | 632 |
| NC(=O)c1nccn1Cc1ccccc1 | 645 |
| CCn1cc(S(=O)(=O)NC2CCCC2)c2cccnc21 | 808 |
| COc1ccc(-n2c(=O)c3sccc3n(Cc3nc(-c4ccc(Cl)c(F)c4)no3)c2=O)cc1 | 1060 |
| Cc1cc(C)n(CCNC(=O)Nc2cccs2)n1 | 603 |
| O=C(CCn1cnc2cc(-c3noc(COc4ccc(Cl)cc4)n3)ccc21)N1CCCCCC1 | 884 |
| CC1CCC(NC(=O)C2CCN(C(=O)c3ncn4c3COC(c3ccc(F)cc3)C4)CC2)CC1 (stereo not given) | 826 |
| Cc1ccc(-c2csc(NC(=O)c3c(-c4ccc(F)cc4)nc4n3CCS4(=O)=O)n2)cc1 | 1070 |
| Cc1ncn(CC(=O)Nc2ccc(F)cc2F)c(=O)c1C | 642 |
| COc1ccc(C(=O)Nc2cnc(N3CCOCC3)nc2)cc1 | 618 |
| O=C(O)C1CCN(S(=O)(=O)c2ccccc2[N+](=O)[O-])CC1 | 701 |
| CCn1c(CN2CCN(S(C)(=O)=O)CC2)nc2cc(NC(=O)C(C)C)ccc21 | 612 |
| COC(=O)c1cc(C)sc1NC(=O)CC1Sc2ccc(C(F)(F)F)cc2NC1=O (stereo not given) | 1030 |
| Cc1cc(C)cc(-c2nc(-c3ccc4c(c3)nnn4CCC(=O)N3CCCC3)no2)c1 | 1090 |
| COc1ccccc1CNc1ncnc2c1CCC2 | 621 |
| COc1cc(C(=O)Nc2cccc(N3CCCS3(=O)=O)c2)c([N+](=O)[O-])cc1OC | 681 |
| COc1c(C(=O)NC(C)C)sc2cc(Cl)ccc12 | 1060 |
| Cc1ccc(-c2cc3c(N4CCC(C(=O)NC5CCCCC5)CC4)nccn3n2)c(C)c1 | 905 |
| COC1=C(OC)C(=O)c2ccccc2C1=O | 878 |
| CCS(=O)(=O)c1nc2ccc(NS(=O)(=O)c3c(C)c(C)cc(C)c3C)cc2s1 | 1020 |
| COc1ccc(-c2ncccc2CNS(=O)(=O)c2ccc(C#N)cc2)cc1 | 673 |
| COc1cc(CN2CCC3(CCC(CN4CCOCC4)O3)CC2)ccc1OCC(C)C (stereo not given) | 598 |
| CC(C)N1CCn2cc(S(=O)(=O)Nc3ccc(F)cc3F)cc2C1=O | 759 |

Reference: the METLIN SMRT retention time set (Domingo-Almenara et al. 2019)
